“Also recorded” adds a separate entry of the source.
Columns and labels:
[1] = Identification of major metabolites in liver microsomes (UPLC-Q-TOF-MS); type: in vitro ADME, mouse, rat, beagle dog, monkey and human; conditions: 10 µM ET-26-HCl, 1 mg ml^−1 liver microsomes, NADPH, 1 h
Description: The major metabolites of ET-26-HCl in liver microsomes from mouse, rat, beagle dog, monkey and human were determined by the UPLC-Q-TOF-MS system.
Reaction mixture containing 10 µM ET-26-HCl, […] MgCl2 and 1 mg ml^−1 liver microsomes in Tris-HCl phosphate buffer (pH 7.4) was pre-incubated for 6 min at 37°C, followed by the addition of NADPH. After incubation for 1 h, methanol was added to stop the reaction. Samples were centrifuged at 11 000 r.p.m. for 5 min; supernatants were collected and air dried at 40°C. Residues were dissolved in 100 µl acetonitrile/water (1:1, v/v) and analysed by the UPLC-Q-TOF-MS.
The UPLC-Q-OF-MS system was equipped with a Waters Synapt G2-Si quadrupole time-of-flight mass spectrometer (Q-TOF-MS), an ESI source and an ACQUITY UPLC H-CLASS liquid chromatography system. The chromatographic separations were achieved on an ACQUITY UPLC BEH C18 column (2.1 × 100 mm, i.d. 1.7 µm, Waters, USA) kept at 45°C and a flow rate of 0.4 ml min^−1. The mobile phase consisted of 5 mM ammonium acetate with 0.1% formic acid (A) and acetonitrile with 0.1% formic acid (B). The optimized gradient elution programme followed was 0 min to 2.1 min, A/B (19/1, v/v); 2.1 min to 7.3 min, A/B (1/4, v/v); 7.3 min to 8.0 min, A/B (1/9, v/v); and 8.0 min to 10 min, A/B (19/1, v/v). The injection volume was 5 µl. The mass experiment was operated in positive ion modes under the following parameters: turbo spray temperature, 120°C; ion spray voltage, 3.0 kV. Nitrogen was used as the nebulizer and the auxiliary gas; meanwhile, the nebulizer gas was set to 650 l h^−1 and kept at 350°C. The collision energy was set at 5–10 V and the collision energy spread was 4–6 V. TOF-MS was scanned with the mass range of m/z 50–600 with 200 ms accumulation time. A 400 ng ml^−1 leu-enkephalin (m/z 556.2771) was selected as an external standard for mass–charge ratio correction at a flow rate of 5 µl min^−1.

[2] = Tissue distribution in Sprague Dawley rats; type: in vivo; conditions: i.v. 4.2 mg kg^−1 ET-26-HCl
Description: (§1) Concentrations of ET-26-HCl and ET-26-acid in biological samples were determined by liquid chromatography–tandem mass spectrometry (LC–MS/MS) after deproteinization with methanol. The bioanalytical method for simultaneous quantification of ET-26-HCl and ET-26-acid in the different matrix was fully validated according to FDA guidelines (electronic supplementary material, figure S1 and tables S1 and S2) in our previous study. Briefly, a 100 µl sample (plasma, tissue homogenate, bile, urine and faeces suspension) were spiked with 20 µl of IS solution and vortexed for 30 s. The mixture was then processed for protein precipitation with 300 µl methanol, followed by centrifugation at 12 000 r.p.m. for 5 min. Supernatant was collected and analysed by LC–MS/MS system.
Sprague Dawley (SD) rats (200–240 g) were provided by the Animal Facility at Sichuan University (Chengdu, China). All rats received a single 4.2 mg kg^−1 dose of ET-26-HCl intravenously. Rats were sacrificed and tissues, including heart, spleen, lung, intestine, colon, kidney, brain, fat, stomach, liver, muscle, testis and ovary were collected at 0, 1, 3, 6 and 10 h post-dosing (six rats/time-point). Tissue samples were rinsed thrice in ice cold saline, and blotted dry with filter papers. Weighed amount of tissues were homogenized in normal saline (thrice the tissue weight, w/v) and homogenates were stored at −80°C until analysis.

[3] = Stability in beagle plasma (LC-MS/MS); type: in vitro ADME
Description: as §1

[4] = Pharmacokinetics in beagle dogs after intravenous administration; type: in vivo; conditions: beagle dogs after i.v. ET-26-HCl
Description: as §1
The LC–MS/MS was performed as described previously. Briefly, ET-26-HCl, ET-26-acid and GBP were separated using a CAPCELL PAK C18 column (50 × 2.00 mm, 5.00 µm) as well as a Security Guard Cartridge (C18, 4 mm × 3.00 mm i.d., Phenomenex). The mobile phase consisting of 0.3% formic acid water (A), and methanol (B) was pumped at a flow rate of 0.6 ml min^−1. The gradient elution was achieved according to the following protocol: 0 min to about 0.50 min, A/B (41/9, v/v); 0.51 min to about 1.5 min, A/B (1/9, v/v); and 1.51 min to about 2.00 min, A/B ([…], v/v). Mass spectrometry was conducted on an API 3000 mass spectrometer (Sciex, Framingham, MA, USA) equipped with an electrospray ionization (ESI) source operating in positive mode. The MS/MS system was in the multiple reaction monitoring (MRM) mode, using the m/z transitions of 275.6/170.9 for ET-26-HCl, 217.7/113.1 for ET-26-acid and 172.5/154.3 for GBP (IS), respectively. The API 3000 mass parameters were set according to the following protocol: curtain gas, 6 psi; collision gas, 8 psi; nebulizer, 4 psi; ion spray voltage, 3000 V and ion source temperature, 450°C. The autosampler was conditioned at 4°C, and the injection volume was 5 µl. The linear ranges of this analytical method for ET-26-HCl and for ET-26-acid from all biological samples are shown in electronic supplementary material, table S3.
Beagle dogs, weighing 9–11 kg, were purchased from Sichuan Industrial of Antibiotics, China National Pharmaceutical Group Corporation (Chengdu, China). A 3 × 3 crossover experimental design with 24 beagles (equal number of male and female dogs) randomly divided into six groups was conducted. Beagle dogs in the six groups received three doses of ET-26-HCl: 1.045 mg kg^−1, 2.090 mg kg^−1 and 4.180 mg kg^−1 as low (L), medium (M) and high (H) dose. Blood samples (2 ml) were collected from the elbow vein in 4 ml heparinized tubes before dosing, and at 1, 3, 5, 10, 20, 30, 120 and 180 min post-dosing. All blood samples were centrifuged at 8000 r.p.m. for 10 min and plasma collected and stored at −80°C until analysis.
All calculations were performed on Microsoft Excel 2016 (Microsoft Co., USA). The Drug and Statistics 3.2.7 (DAS 3.2.7) software package (Mathematical Pharmacology Professional Committee of China, China) was used to acquire the main pharmacokinetic parameters of ET-26-HCl. All data were shown as mean ± standard deviation (s.d.). Statistical significances were calculated by one-way analysis of variance (ANOVA).

[5] = Excretion (urine, faeces, bile) in Sprague Dawley rats; type: in vivo
Description: as §1
SD rats (4 male and 4 female) received 4.2 mg kg^−1 of ET-26-HCl intravenously and were housed in metabolic cages. Urine and faeces from the treated rats were collected between 0–6, 6–12, 12–24, 24–30, 30–36 and 36–48 h post-dosing. Urine volume and faeces weight were measured and recorded.
Bile fistulas of SD rats (four male and four female) were cannulated with polyethylene tube (Instech Laboratories, Inc., USA) and bile was collected at the following time-points: 0–3, 3–6, 6–9, 9–12 and 12–24 h post-dosing. The volume of the collected bile was measured and stored at −80°C until analysis.

[6] = rats, i.v. ET-26-HCl; cited from earlier work
[7] = i.v. ET-26-HCl 4.2 mg kg^−1, collected to 48 h

Row | SMILES | source (liver microsomes) in which detected [1] | time for clearance from tissues [2] | tissues with the highest concentration [2] | Measured concentration (Mean ± SD) ([3]; 4◦C for 3 h, nominal 38.24 ng/mL) | Measured concentration (Mean ± SD) ([3]; 4◦C for 3 h, nominal 3186 ng/mL) | Measured concentration (Mean ± SD) ([3]; Freeze and Thaw Cycle (3), nominal 38.24 ng/mL) | Measured concentration (Mean ± SD) ([3]; Freeze and Thaw Cycle (3), nominal 3186 ng/mL) | Measured concentration (Mean ± SD) ([3]; Room temperature 3 h, nominal 38.24 ng/mL) | Measured concentration (Mean ± SD) ([3]; Room temperature 3 h, nominal 3186 ng/mL) | Measured concentration (Mean ± SD) ([3]; –80 ◦C for 30 days, nominal 38.24 ng/mL) | Measured concentration (Mean ± SD) ([3]; –80 ◦C for 30 days, nominal 3186 ng/mL) | plasma concentration of ET-26-acid (in words) [4] | accumulative excretion through bile ([5]; i.v. ET-26-HCl 4.2 mg kg^−1, bile collected to 24 h) | accumulative excretion through faeces [5, 7] | accumulative excretion through urine [5, 7] | plasma exposure of metabolite relative to parent (in words) [6]
1 | C[C@H](c1ccccc1)n1cncc1C(=O)OCCO [M2] | every liver microsomal preparation; also recorded: human, monkey, dog, rat, mouse |  |  |  |  |  |  |  |  |  |  |  |  |  |  | 
2 | C[C@H](c1ccccc1)n1cncc1C(=O)O [ET-26-acid] |  | around 3 h | plasma and liver | 39.92 ± 2.904 ng/mL | 2890 ± 174.8 ng/mL | 36.23 ± 2.568 ng/mL | 2770 ± 157.7 ng/mL | 38.29 ± 4.088 ng/mL | 2890 ± 117.6 ng/mL | 35.84 ± 1.899 ng/mL | 3049 ± 391.4 ng/mL | almost non-detectable; also recorded: almost undetectable | 0.027% | 0.080% | 12.49% | higher plasma exposure than the parent drug

From publication PMC7062083, “Metabolite identification, tissue distribution, excretion and preclinical pharmacokinetic studies of ET-26-HCl, a new analogue of etomidate” (Royal Society Open Science, 2020)
